Patent USRE39608E1, “Substituted benzimidazoles and their use as PARP inhibitors” (Abbott GmbH & Co. KG, priority 1998, dated 2007)
Structures can show the parent of a compound that is named as a salt.

Experiments:
[1] = Determination of the water solubility; type: physicochemical; settings: pH of from 5 to 6 with sodium acetate solution
Protocol: A compound to be measured was dissolved directly in a specified volume of water and the resulting solution was brought to a pH of from 5 to 6 with a sodium acetate solution so that the concentration of the active compound to be tested was reached. If the test substance was not present as a water-soluble salt, it was dissolved in a very small amount of dimethyl sulfoxide and then diluted with water (final concentration of dimethyl sulfoxide≦1%), after which the pH was adjusted here too. Here, Example 1 according to the invention gave a solubility of >0.5%.

[2] = S. Cuzzocrea et al., Br. J. Pharmacol. 121 (1997); cited from earlier work

## NC(=O)c1cccc2[nH]c(C3CCNCC3)nc12 [Example 1, 2-(Piperidin-4-yl)benzimidazole-4-carboxamide.2 HCl]
[1]
  solubility: > 0.5%

## NC(=O)c1cccc(N)c1 [3-aminobenzamide]
[2]
  protective effects in a model for circulatory shock: protective effects
